Holding throughout (type): cell-based
In one series the test system is human erythrocytes. The conditions noted are these: red cells of human, 1 h. The method, then: Human whole blood was obtained from Blood Transfusion Center Faculty of Medicine Khon Kaen University (ethical approval number HE601010). Fresh human erythrocytes were carefully mixed with PBS (1:3) and centrifuged at 1000 × g for 2 min. The supernatant was discarded and the cell pellet was resuspended to 2% w/v in PBS. 100 µL of the resuspended erythrocytes were incubated with the peptide (10 µL, final concentrations ranging from 12.5 to 100 μg/mL, two-fold serial dilution) at 37 °C for 1 h. After the treatment, the plate was centrifuged and the supernatant was taken to determine the optical density at 415 nm using a microplate reader (ALLSHENG, Zhejiang, China). The positive control for this assay was the addition of Triton X-100 (1% v/v), which causes 100% hemolysis. The negative control was cells treated with PBS buffer only. The hemolysis activity was estimated using the equation: %hemolysis=OD415ofsample/OD415ofTritonX-100treatedcontrol×100

Series [1] concerns Bacillus subtilis (ATCC 6633). The conditions noted are these: ATCC 6633, 24 h. The method, then:
(§1) Broth microdilution assays were performed as reported previously. In short, the bacteria including Escherichia coli (ATCC 25922), Klebsiella pneumoniae (ATCC 27736), Pseudomonas aeruginosa (ATCC 27853), Bacillus subtilis (ATCC 6633), Staphylococcus aureus (ATCC 25923) and Staphylococcus epidermidis (ATCC 12228) were grown in Nutrient broth to mid-log phase at 37 °C. The bacterial suspension (50 μL, concentration of 1 × 10^6 CFU/mL) was loaded into a well with serially diluted peptide (50 µL, final concentrations ranging from 0–200 μg/mL) in a sterile 96-well plate and incubated at 37 °C for 18 h. The optical density (OD) at 600 nm was measured using a microplate reader (ALLSHENG, Zhejiang, China) in order to determine the growth of the bacteria. The inhibition was estimated using the formula; %inhibition=OD600ofcontrol-OD600ofsample/OD600ofcontrol-OD600ofblank×100 where minimal inhibitory concentration (MIC) is defined as the minimum concentration that inhibited 90% of bacterial growth.
(§2) In order to evaluate the minimal bactericidal concentration (MBC)—the lowest concentration that terminates the growth of bacteria on an agar plate—of the peptide, co-culture medium (100 μL) from each well after the microdilution assay was spread on a nutrient agar plate. Plates were maintained at 37 °C for 24 h and the number of colonies formed was counted to evaluate antimicrobial activity.

Series [2] deals with Staphylococcus epidermidis (ATCC 12228). The conditions noted are these: ATCC 12228, 24 h. The protocol:
as §1, §2

Series [3] relates to Pseudomonas aeruginosa (ATCC 27853). The following applies: ATCC 27853, 24 h. The method, then:
as §1, §2

In series [4] the test system is Staphylococcus aureus (ATCC 25923). The conditions noted are these: ATCC 25923, 24 h. The method, then: as §1, §2
The test system of series [5] is Klebsiella pneumoniae (ATCC 27736). The following applies: ATCC 27736, 24 h. The method, then:
as §1, §2

Series [6] relates to Escherichia coli (ATCC 25922). The following applies: ATCC 25922, 24 h. The method, then:
as §1, §2

Series [7] relates to human peripheral blood mononuclear cells (PBMC). The conditions noted are these: 24 h. The method, then: (§3) Human peripheral blood mononuclear cells (PBMC), African green monkey kidney cells (Vero), human keratinocyte cells (HaCaT) and mouse preadipocytes (3T3-L1) were used to evaluate the cytotoxicity of peptides by the MTT assay. PBMCs were isolated using Ficoll medium (GE Healthcare, Uppsala, Sweden) as described by Jangpromma et al.[28]. The PBMCs were then cultured in RPMI 1640, while Vero, HaCaT and 3T3-L1 cells were cultured in DMEM. All culture mediums were supplemented with 10% heat-inactivated fetal bovine serum (FBS) and 1% antibiotic:antimycotic (Gibco, USA). The cells were cultured at 37 °C with 5% CO2/95% relative humidity. After that, PBMC (2 × 10^6 cells/well), Vero (1 × 10^4 cells/well), HaCaT (1 × 10^4 cells/well) and 3T3-L1 (1 × 10^4 cells/well) were individually seeded into 96-well plate and cultured at 37 °C overnight. Next, two-fold serially diluted peptides (3.13–200 μg/mL) were added to the cell culture. After incubation in 5% (v/v) CO2 incubator for 24 h, the medium culture was removed and MTT solution ([…] final concentration in fresh medium culture) was added to the cells and incubated for 30 min. Thereafter, the medium was removed and DMSO (100 µL) was added to each well to dissolve the formazan crystals. The optical density at 570 nm was determined using a microplate reader (ALLSHENG, Zhejiang, China). The cytotoxicity of IL15.3 against Vero, HaCaT and 3T3-L1 cells in the absence of FBS was also measured by the MTT assay to confirm the peptide is not sequestered by proteins in the serum causing artificially low cytotoxicity against eukaryotic cells.
(§4) Cell viability was determined using the equation: %cellviability=OD570ofsample/OD570ofuntreatedcontrol×100
(§5) GraphPad Prism8 (San Diego, CA, USA) was used to calculate IC50 values using a non-linear regression model.

Series [8] concerns human keratinocyte cells (HaCaT). The following applies: 24 h. The method, then: as §3, §4, §5
Series [9] deals with Bacillus subtilis (ATCC 6633). The following applies: ATCC 6633, 18 h. The protocol: as §1
Series [10] deals with Staphylococcus epidermidis (ATCC 12228). The following applies: ATCC 12228, 18 h. The protocol: as §1
Series [11] concerns Pseudomonas aeruginosa (ATCC 27853). The conditions noted are these: ATCC 27853, 18 h. The method, then:
as §1

Series [12] relates to several bacterial strains. The following applies: for MIC, over all strains tested: 18 h. The protocol: as §1
For series [13], the system named is Staphylococcus aureus (ATCC 25923). The following applies: ATCC 25923, 18 h. The method, then: as §1
Series [14] has as its system Klebsiella pneumoniae (ATCC 27736). The following applies: ATCC 27736, 18 h. The protocol:
as §1

The subject of series [15] is Escherichia coli (ATCC 25922). The following applies: ATCC 25922, 18 h. The protocol: as §1

Where two headings read alike, the source gives them in different places. Ends that are not written are not given here. Some results are limits rather than exact numbers.

Data on six sequences can be found in article PMC10522709, “Rational design and characterization of cell-selective antimicrobial peptides based on a bioactive peptide from Crocodylus siamensis hemoglobin” (Scientific Reports, 2023).

For orientation: MBC means the lowest tested concentration that kills the bacteria rather than only halting them. In general, MIC refers to the least concentration at which growth counts as inhibited. The low end stands for greater potency, the high end for weaker potency. On to IIHNEKVQAHGKKVL [IL15], for which, in the series on human erythrocytes, the “Hemolysis concentration50 (HC50)” value was above 2000 µg/mL. In addition, the minimal bactericidal concentration (MBC) in series [1], in series [2], in series [3], in series [4], in series [5] and in [6] was above 200 µg/mL throughout. Further, in series [7], the “IC50 PBMC” value is above 200 µg/mL. For the same sequence, in series [8], the “IC50 HaCaT” value was above 200 µg/mL. Further, the MIC in series [9], in series [10], in [11], in series [13], in [14] and in series [15] was above 200 µg/mL each time. Further, in series [12], the “MIC, over all strains tested” value is above 200 µg/mL.

As to IKHWEKVWKHGKKVL [IL15.1], in the series with human erythrocytes, the “Hemolysis concentration50 (HC50)” value was above 2000 µg/mL. The MBC in series [1], in series [2], in [3], in series [4], in [5] and in [6] was above 200 µg/mL each time. The “IC50 PBMC” value in series [7] was above 200 µg/mL. For the same sequence, the “IC50 HaCaT” value in series [8] is above 200 µg/mL. The MIC in [9], in series [10], in series [11], in [13], in series [14] and in series [15] was above 200 µg/mL throughout. Besides, the “MIC, over all strains tested” value in series [12] was above 200 µg/mL.

As to IKHWKKVWKHGKKVL [IL15.2], in the series on human erythrocytes, the “Hemolysis concentration50 (HC50)” value was above 2000 µg/mL. For the same sequence, the MBC is 60 µg/mL in [1]; above 200 µg/mL in [2]; above 200 µg/mL in [3]; above 200 µg/mL in series [4]; above 200 µg/mL in series [5]; 150 µg/mL in series [6]. Further, the “IC50 PBMC” value in series [7] was above 200 µg/mL. Also, the “IC50 HaCaT” value in series [8] is above 200 µg/mL. The MIC in series [9] was 50 µg/mL; in series [10] it was above 200 µg/mL; in series [11], above 200 µg/mL; in series [13], above 200 µg/mL; in series [14] it was above 200 µg/mL; in [15] it was 100 µg/mL.

In the case of IKHWKKVWKHWKKKL [IL15.4], the “Hemolysis concentration50 (HC50)” value with human erythrocytes was above 2000 µg/mL. The MBC in [1] was 10 µg/mL; in series [2], 12 µg/mL; in series [3] it was 14 µg/mL; in [4], 25 µg/mL; in series [5] it was 50 µg/mL; in [6], 6 µg/mL. Moreover, the “IC50 PBMC” value in series [7] is above 200 µg/mL. Also, the “IC50 HaCaT” value in series [8] is above 200 µg/mL. The MIC in [9] is 6 µg/mL; in [10], 9 µg/mL; in series [11] it was 10 µg/mL; in series [13] it was 12 µg/mL; in [14], 14 µg/mL; in [15] it was 4 µg/mL. The “increase of SI in comparison with IL15.2” value is “approximately 6 fold” in series [12] (towards gram-negative bacteria) and around 25 fold in series [12] (towards gram-positive bacteria).

Turning to IRHWRRVWRHWRRRL [IL15.5], in the series on human erythrocytes, the “Hemolysis concentration50 (HC50)” value stood at 896 µg/mL. Also, the MBC in [1] stood at 12 µg/mL; in series [2], 15 µg/mL; in series [3] it was 50 µg/mL; in series [4], 50 µg/mL; in series [5] it was 100 µg/mL; in series [6], 25 µg/mL. Moreover, the “IC50 PBMC” value in series [7] turned out to be 113 µg/mL. Moreover, the “IC50 HaCaT” value in series [8] stood at 200 µg/mL. Also, the MIC stood at 8 µg/mL in series [9]; 12 µg/mL in series [10]; 35 µg/mL in series [11]; 25 µg/mL in series [13]; 75 µg/mL in series [14]; 15 µg/mL in series [15]. Further, the “MIC, over all strains tested” value in series [12] lay in the range of 8 to 75 µg/mL.

Take QAIIHNEKVQAHGKKVL [QL17]: the “Hemolysis concentration50 (HC50)” value in the series with human erythrocytes is above 2000 µg/mL. The MBC in [1], in series [2], in [3], in series [4], in series [5] and in series [6] was above 200 µg/mL in each case. The “IC50 PBMC” value in series [7] was above 200 µg/mL. In addition, the “IC50 HaCaT” value in [8] is above 200 µg/mL. The minimal inhibitory concentration (MIC) in series [9], in [10], in series [11], in [13], in series [14] and in series [15] was above 200 µg/mL each time. The “MIC, over all strains tested” value in series [12] is above 200 µg/mL.
